Assay results taken from PMC4721540, “Selective activators of protein phosphatase 5 target the auto-inhibitory mechanism” (Bioscience Reports, 2015).
Where a chain is given by its changes, count along the chain named. ≈ marks a conversion by molar mass, not a printed value. Entries after “also recorded” stand apart in the source; their conditions may differ.

Key:
PPH-5 [1] = molecular target: T1, PPH-5 (Caenorhabditis elegans, UniProt Q9NES8); assay: pNPP phosphatase assay with nematode PPH-5; assay type: biochemical, C. elegans; conditions: for fold activation / kcat: PPH-5 (C. elegans); for fold activation: based on kcat compared with PPH-5 basal activity; for activation of PPH-5 phosphatase activity: substances at 50 ng/ml, DMSO control; for kcat: 60 mM pNPP, in presence of compound
T1 construct: made in house
T1 sequence (Q9NES8 1-496): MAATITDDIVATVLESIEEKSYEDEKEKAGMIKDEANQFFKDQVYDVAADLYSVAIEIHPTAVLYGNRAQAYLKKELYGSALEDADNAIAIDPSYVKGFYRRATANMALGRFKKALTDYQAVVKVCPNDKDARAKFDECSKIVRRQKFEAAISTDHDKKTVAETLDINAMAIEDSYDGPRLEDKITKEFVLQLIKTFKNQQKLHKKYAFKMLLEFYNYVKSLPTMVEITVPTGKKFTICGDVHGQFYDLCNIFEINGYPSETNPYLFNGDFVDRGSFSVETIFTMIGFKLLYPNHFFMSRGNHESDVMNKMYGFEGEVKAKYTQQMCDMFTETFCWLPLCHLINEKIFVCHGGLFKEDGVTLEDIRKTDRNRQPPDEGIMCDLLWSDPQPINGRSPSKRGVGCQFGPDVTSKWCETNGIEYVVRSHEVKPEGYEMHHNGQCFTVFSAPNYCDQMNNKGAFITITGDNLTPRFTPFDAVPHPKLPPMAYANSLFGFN
Description: The compound library consisting of 10000 compounds (New Chemistry and Discovery Chemistry Collection, ChemDiv) was screened using a chromometric phosphatase assay with para-nitrophenyl phosphate (pNPP) as substrate. Phosphatase activity was determined by the conversion of pNPP to para-nitrophenole and absorption of the product at 410 nm (ε: 15100 cm^−1 M^−1). Assays were performed in 96-well plates in a PerkinElmer EnVision instrument with 50 nM of PPH-5. Reaction volume was 100 μl in a buffer of 40 mM HEPES, pH 7.5, 20 mM KCl, 5 mM MnCl2 and 1 mM DTT. The reaction was started by adding pNPP to a final concentration of 60 mM. The slope of the reaction was determined and deviations of >30% were considered potential hits leading to a collection of 76 initial compounds. […] These 76 compounds were maintained and rescreened individually in a Varian Cary 100 spectrophotometer (Agilent Technologies) in Hellma SUPRASIL precision quarz cells (10-mm path length) and 140 μl of reaction volumes. Finally, five compounds were obtained as reproducible activators and selected for further characterization.
(§1) Phosphatase assays for characterization of PP5 and PPH-5 properties were performed in 40 mM HEPES/KOH, 20 mM KCl, 5 mM MnCl2, 1 mM DTT, pH 7.5 and 60 mM pNPP at 20°C if not indicated otherwise. Phosphatase concentrations ranged from 50 to 500 nM in the assay. If indicated, the CeHsp90/DAF-21 peptide AEEDASRMEEVD was supplemented in the assay at a concentration of 60 μM. […] These concentrations were 70 μM for P5SA-1, 140 μM for P5SA-2, 50 μM for P5SA-3, 100 μM for P5SA-4 and 45 μM for P5SA-5.

PP5 = molecular target: T2, PP5 (Rattus norvegicus, UniProt P53042); assay: pNPP phosphatase assay with rat PP5; assay type: biochemical, R. norvegicus; conditions: for fold activation: PP5 (R. norvegicus)
T2 construct: His tag (inferred from pET28 vector and HisTrap purification); made in house; host or cells: E. coli BL21-CodonPlus (DE3)-RIL
T2 sequence (P53042 1-499): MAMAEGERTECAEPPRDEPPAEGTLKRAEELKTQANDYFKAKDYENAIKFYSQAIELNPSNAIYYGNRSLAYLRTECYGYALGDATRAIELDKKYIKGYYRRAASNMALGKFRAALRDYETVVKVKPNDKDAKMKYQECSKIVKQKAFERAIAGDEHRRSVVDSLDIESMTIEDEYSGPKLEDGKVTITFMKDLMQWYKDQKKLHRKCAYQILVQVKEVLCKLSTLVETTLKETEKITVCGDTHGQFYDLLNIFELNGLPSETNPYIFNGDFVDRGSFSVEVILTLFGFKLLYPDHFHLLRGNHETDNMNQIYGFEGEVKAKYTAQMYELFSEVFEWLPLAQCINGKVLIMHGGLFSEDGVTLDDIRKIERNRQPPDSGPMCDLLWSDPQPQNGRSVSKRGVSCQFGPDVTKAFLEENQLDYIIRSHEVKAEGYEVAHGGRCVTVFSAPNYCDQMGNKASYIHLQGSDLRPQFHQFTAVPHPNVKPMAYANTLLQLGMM
Description: as §1

physchem = assay type: physicochemical; conditions: 20 °C, pH 7.5, aqueous buffer
Description: as §1

PP5 428–430/455–457 = molecular target: T3, PP5 428–430/455–457 (Rattus norvegicus, UniProt P53042, E428A/K430A/M455A/N457A/V429A); assay: pNPP phosphatase assay with PP5 428–430/455–457 mutant; assay type: biochemical; conditions: compound at 100 μM
T3 construct: made in house; host or cells: E. coli BL21-CodonPlus (DE3)-RIL
T3 sequence (P53042 1-499 E428A/V429A/K430A/M455A/N457A): T2 sequence (P53042 1-499) with E428A, V429A, K430A, M455A, N457A
Description: (§2) Cloning and purification of PPH-5 (protein phosphatase homologue), CeHsp90/DAF-21 (abnormal DAuer formation), YFP-CeHsp90/DAF-21, BAG-1 (Bcl-2 associated athanogene-1), DNJ-13 (DNJ-13 homologue) and CeHsc70 (C. elegans heat shock cognate 70) were performed as described before. The human phosphatases PP1, PP2A and PP2B/PP3 were purified as described. The expression clones of rat PP5, PP5-ΔN165 (166–499) and PP5-ΔC8 (1–491) were generated by PCR and insertion of the DNA into the pET28 vector. Expression clones of PP5 428–430, which contains A^428-A^429-A^430 instead of E^428-V^429-K^430 and PP5 […], which contains A^428-A^429-A^430 instead of E^428-V^429-K^430 and A^455-G^456-A^457 instead of M^455-G^456-N^457, were also generated by PCR using primer sequences containing the modified codons. PCR-products were inserted into the pET28b expression plasmid (Merck) and verified by DNA sequencing (GATC Biotech). Proteins were expressed in BL21-CodonPlus (DE3)-RIL bacteria (Stratagene). Bacterial cultures were grown to a D600 of 0.8 and induced with 1 mM IPTG. Cells were disrupted using a cell disruption machine (IUL Instruments) and the lysate was loaded on to a HisTrap FF column (GE Healthcare). […] Protein purity was assessed by SDS/PAGE and the molecular mass was determined on an UltraFlex III MALDI-TOF/TOF mass spectrometer (Bruker). […]

PP5 428–430 = molecular target: T4, PP5 428–430 (Rattus norvegicus, UniProt P53042, E428A/K430A/V429A); assay: pNPP phosphatase assay with PP5 428–430 mutant; assay type: biochemical; conditions: compound at 100 μM
T4 construct: made in house; host or cells: E. coli BL21-CodonPlus (DE3)-RIL
T4 sequence (P53042 1-499 E428A/V429A/K430A): T2 sequence (P53042 1-499) with E428A, V429A, K430A
Description: as §2

[2] = molecular target: T5, PPH-5 - CeHsp90/DAF-21 complex (Caenorhabditis elegans, UniProt Q9NES8); assay: Analytical ultracentrifugation of PPH-5/YFP-Hsp90 complex formation; assay type: binding, C. elegans; conditions: peptide 60 μM
T5 construct: made in house
Description: Binding of Hsp90 to PPH-5 was analysed by analytical ultracentrifugation with fluorescence detection as described before. Experiments were performed in a Beckman ProteomeLab XL-A analytical ultracentrifuge (Beckman) equipped with an AU-FDS detector (Aviv Biomedical). Analytical ultracentrifugation (AUC) runs were performed in 40 mM HEPES/KOH, pH 7.5, 20 mM KCl, 1 mM DTT. The concentration of labelled YFP–Hsp90 was 300 nM and 3 μM of PPH-5 were added to form a complex with YFP–Hsp90. Where indicated 60 μM of the C-terminal Hsp90/DAF-21 peptide (AEEDASRMEEVD) was present in the sample. Centrifugation was performed at 20°C and 142000 g for 12 h. Scans were recorded every 90 s. Data analysis was performed using a dc/dt approach according to Stafford. The dc/dt plots were fit to Gaussian functions in order to obtain the s20,w values of the respective species as described previously. P5SAs were added as indicated.

PPH-5 [3] = molecular target: T1, PPH-5; assay: Relaxation-edited NMR binding to PPH-5; parameters: species or system C. elegans; conditions: 10 μM PPH-5, phosphate buffer, 20°C, no substrate
Description: NMR experiments were performed on an 800 MHz spectrometer (Bruker) with cryoprobe. The measurements were done in ^2H2O with phosphate buffer (4 mM KH2PO4, 16 mM Na2HPO4, 120 mM NaCl, pH 7.4) and 1%–5% of d6-DMSO. P5SA-2 without protein was recorded in high sensitivity experiments with a high number of scans. The CPMG sequence with an additional Watergate to suppress residual water was used. The T2 filtering time was set to 400 ms to suppress signals from slowly tumbling molecules. Peak intensities were normalized by comparing residual DMSO peaks. PPH-5 was added as indicated.

Compound: CN1CCc2c(sc(-n3cccc3)c2CNC(=O)NC23CC4CC(CC(C4)C2)C3)C1 [P5SA-3]
- fold activation (PPH-5 [1]): 4.0
- activation of PPH-5 phosphatase activity (PPH-5 [1]): activate PPH-5
- fold activation (PP5; compound at 30 μM (solubility limited)): 2.9
- solubility (physchem): 50 µM (≈ 21.2 µg/mL)

Compound: O=c1cc2nc(-c3ccc(F)cc3)nc(SCc3ccc(Br)cc3)n2[nH]1 [P5SA-4]
- kcat (PPH-5 [1]): 4.85 ± 0.43 s⁻¹
- fold activation (PPH-5 [1]): 7.8
- activation of PPH-5 phosphatase activity (PPH-5 [1]): activate PPH-5
- fold activation (PP5; compound at 100 μM): 3.0
- solubility (physchem): 100 µM (≈ 43.1 µg/mL)

Compound: CNC(=O)c1c(NC(=O)COCC(=O)Nc2sc3c(c2C(=O)NC)CCC3)sc2c1CCC2 [P5SA-5]
- stimulation of PP5 428–430/455–457 (PP5 428–430/455–457): could not detect stimulation; also recorded: did not stimulate the catalytic activity
- kcat (PPH-5 [1]): 5.22 ± 0.67 s⁻¹
- fold activation (PPH-5 [1]): 8.4
- influence of MEEVD-containing peptide on apparent affinity of activator (PPH-5 [1]; PPH-5, 60 μM MEEVD-containing peptide): only a minor influence on the apparent affinity
- activation of PPH-5 phosphatase activity (PPH-5 [1]): activate PPH-5
- fold activation (PP5; compound at 100 μM): 8.6
- stimulation of full-length rat PP5 at lower concentration (PP5; compound at 10 μM): effect at the lower concentration was detectable
- solubility (physchem): 45 µM (≈ 22.1 µg/mL)
- stimulation of PP5 428–430 (single-loop mutant) (PP5 428–430): did not stimulate the catalytic activity

Compound: AEEDASRMEEVD [MEEVD peptide, C-terminal Hsp90/DAF-21 peptide from Biomatik, used as control to disrupt the PPH-5–Hsp90 complex]
- effect on complex formation between PPH-5 and YFP–Hsp90 ([2]; 300 nM YFP–Hsp90, 3 μM PPH-5, P5SAs at maximal soluble concentration): complex formation is strongly reduced
- sedimentation coefficient s20,w of YFP–Hsp90 with PPH-5 in presence of substance ([2]; complex without substance 8.9 S, YFP–Hsp90 alone 6.8 S): 7.6 S

Compound: FC(F)(F)c1c2c(nc3c(-c4ccc(Cl)cc4)cnn13)CCC2 [P5SA-1]
- kcat (PPH-5 [1]): 2.28 ± 0.28 s⁻¹
- fold activation (PPH-5 [1]): 3.7
- activation of PPH-5 phosphatase activity (PPH-5 [1]): activate PPH-5
- fold activation (PP5; compound at 100 μM): 4.1
- solubility (physchem): 70 µM (≈ 23.6 µg/mL)

Compound: COc1ccc(-c2nc(Cc3ccc(Cl)cc3)no2)cc1OC [P5SA-2]
- stimulation of PP5 428–430/455–457 (PP5 428–430/455–457): could not observe any stimulation
- kcat (PPH-5 [1]): 1.99 ± 0.43 s⁻¹
- fold activation (PPH-5 [1]): 3.2
- activation of PPH-5 phosphatase activity (PPH-5 [1]): activate PPH-5
- fold activation (PP5; compound at 100 μM): 3.9
- solubility (physchem): 140 µM (≈ 46.3 µg/mL)
- stimulation of PP5 428–430 (single-loop mutant) (PP5 428–430): no activation could be achieved
- direct binding to PPH-5 by NMR (PPH-5 [3]): confirms binding of P5SA-2 to PPH-5
